Laboratory results as given in patent US12559474B2, “Triazine derivatives having virus replication inhibitory activity and pharmaceutical composition comprising the same” (priority 2021, dated 2026).
Read-outs that look alike come from different tables or passages of the source.

What was measured:
SARS-CoV-2 3CL protease = SARS-CoV-2 3CL protease (Severe acute respiratory syndrome coronavirus 2, UniProt P0DTD1); assay: biochemical; conditions: 50% SARS-CoV-2 3CL protease inhibitory concentration, read-out: IC50
SARS-CoV-2 = assay: microbe, parasite or virus in culture; format: cell-based; conditions: Severe acute respiratory syndrome coronavirus 2, VeroE6/TMPRSS2, 72 h, 50% SARS-CoV-2 infected cell death inhibitory concentration, VeroE6/TMPRSS2 cells, 3 days culture

Compound | IC50 (SARS-CoV-2 3CL protease; given as class symbols) [nM] | EC50 (SARS-CoV-2; class symbols) [nM] | IC50 (SARS-CoV-2 3CL protease; RapidFire MS) [nM] | EC50 (SARS-CoV-2; CellTiter-Glo 2.0) [nM]
Cc1c2cc(Nc3nc(=O)n(Cc4ncn(C)n4)c(=O)n3Cc3cc(F)c(F)c(F)c3)c(Cl)cc2nn1C [II-0452] | < 100 | 1000 to 10000 | – | –
CNc1nc2ccc(Nc3nc(=O)n(-c4cncc(C)c4)c(=O)n3Cc3cc(C#N)ccc3C)cc2s1 [II-0496] | < 100 | < 1000 | – | –
COc1nc2cc(Cl)c(Nc3nc(=O)n(Cc4ccc[nH]c4=O)c(=O)n3Cc3cc(F)c(F)c(F)c3)cc2s1 [II-0418] | – | – | 110 | 6240
Cc1cncc(-n2c(=O)nc(Nc3ccc4oc(C)cc4c3)n(Cc3ccc(F)c(C#N)c3)c2=O)c1 [II-0196] | < 100 | < 1000 | – | –
COc1cc(F)c(C#N)cc1Cn1c(Nc2cc3cn(C)nc3cc2Cl)nc(=O)n(-c2cncc(C)c2)c1=O [II-0093] | – | – | 12 | 487
COc1cc(Cl)c(Nc2nc(=O)n(Cc3ccc[nH]c3=O)c(=O)n2Cc2cc(F)c(F)c(F)c2)cn1 [Compound I-0245] | < 100 | 1000 to 10000 | – | –
N#Cc1cc(Cn2c(Nc3ccc4nn(CC(F)F)cc4c3)nc(=O)n(-c3cncc(Cl)c3)c2=O)ccc1F [II-0415] | – | – | 15 | 870
Cn1cc2cc(Nc3nc(=O)n(-c4cncc5ccccc45)c(=O)n3Cc3cc(F)c(F)c(C#N)c3)ccc2n1 [II-0154] | < 100 | < 1000 | – | –
CN(C)C(=O)Cn1cc2cc(Nc3nc(=O)n(-c4cncc5ccccc45)c(=O)n3Cc3cc(F)c(F)cc3F)c(Cl)cc2n1 [II-0002] | < 100 | 1000 to 10000 | – | –
COc1ccc(Nc2nc(=O)n(Cc3cc(C)n[nH]c3=O)c(=O)n2Cc2cc(F)c(F)c(F)c2)c(Cl)c1 [II-0084] | < 100 | < 1000 | – | –
CC(C)(O)Cn1cc2cc(Nc3nc(=O)n(Cc4ncccn4)c(=O)n3Cc3cc(F)c(F)c(Cl)c3)c(Cl)cc2n1 [II-0241] | – | – | 24 | 1390
Cc1cncc(-n2c(=O)nc(Nc3cc4cn(C)nc4cc3Cl)n(Cc3cc(F)c(F)cc3C)c2=O)c1 [II-0403] | < 100 | < 1000 | – | –
Cc1cncc(-n2c(=O)nc(Nc3cc4sc(C)nc4cc3C)n(Cc3ccc(F)c(C#N)c3)c2=O)c1 [II-0191] | < 100 | < 1000 | – | –
Cn1cc2cc(Nc3nc(=O)n(-c4cncc5ccccc45)c(=O)n3Cc3ccc(F)c(C#N)c3)c(Cl)cc2n1 [Compound I-0379] | < 100 | < 1000 | – | –
Cc1cncc(-n2c(=O)nc(Nc3cc4cn(C)nc4cc3F)n(Cc3cc(C#N)ccc3Cl)c2=O)c1 [II-0364] | < 100 | < 1000 | – | –
Cc1cncc(-n2c(=O)nc(Nc3cc4cn(C)nc4cc3Cl)n(Cc3cc(C#N)cnc3C)c2=O)c1 [II-0537] | < 100 | 1000 to 10000 | – | –
COCc1cncc(-n2c(=O)nc(Nc3ccc4c(c3)CCO4)n(Cc3ccc(F)c(C#N)c3)c2=O)c1 [II-0271] | < 100 | 1000 to 10000 | – | –
Cc1cncc(-n2c(=O)nc(Nc3cc4cn(C)nc4cc3Cl)n(Cc3cc(F)ccc3F)c2=O)c1 [II-0199] | < 100 | < 1000 | – | –
Cc1cnc(Cn2c(=O)nc(Nc3cc4cn(C)nc4cc3Cl)n(Cc3cc(F)c(F)cc3F)c2=O)nc1 [II-0425] | – | – | 260 | 5850
N#Cc1cc(Cn2c(Nc3cc4c(cc3Cl)OCC4)nc(=O)n(Cc3ccc[nH]c3=O)c2=O)cc(F)c1F [Compound I-0011] | < 100 | < 1000 | – | –
Cn1cnc(Cn2c(=O)nc(Nc3cc4cn(C)nc4cc3Cl)n(Cc3ccc(F)c(Cl)c3)c2=O)n1 [II-0050] | < 100 | < 1000 | – | –
Cc1cncc(-n2c(=O)nc(Nc3cc4cn(C)nc4cc3Cl)n(Cc3cc(C#N)c(F)cn3)c2=O)c1 [II-0535] | < 100 | < 1000 | – | –
CNc1nc2ccc(Nc3nc(=O)n(-c4cncc(Cl)c4)c(=O)n3Cc3cc(C#N)ccc3C)cc2s1 [II-0383] | < 100 | < 1000 | – | –
N#Cc1cc(Cn2c(Nc3cc4cn(C(F)F)nc4cc3Cl)nc(=O)n(-c3cncc4ccccc34)c2=O)ccc1F [Compound I-0428] | < 100 | < 1000 | – | –
Cc1cncc(-n2c(=O)nc(Nc3cc4cn(C)nc4cc3Cl)n(Cc3cc(F)c(F)cc3OCC3CCC3)c2=O)c1 [II-0551] | < 100 | < 1000 | – | –
Cn1cnc(Cn2c(=O)nc(Nc3cc4cn(C)nc4cc3Cl)n(Cc3ccc(F)c(C#N)c3)c2=O)n1 [II-0286] | < 100 | 1000 to 10000 | – | –
CNc1nc2cc(F)c(Nc3nc(=O)n(-c4cncc(Cl)c4)c(=O)n3Cc3ccc(F)c(C#N)c3)cc2s1 [II-0263] | < 100 | 1000 to 10000 | – | –
O=c1[nH]cccc1Cn1c(=O)nc(NC23CC(Nc4ncc(F)cn4)(C2)C3)n(Cc2cc(F)c(F)c(F)c2)c1=O [II-0460] | – | – | 22 | 19000
